Assay results published in patent publication US10500217B2 (LESLIE RAY MATTHEWS, M.D., LLC, priority 2018, dated 2019).

Tested on: Glial cells (DBTRG-05MG; CRL-2020)
Assay: Lactate dehydrogenase (LDH) cell death assay: percentage cell survival of glia cells with or without H2O2 exposure
Assay type: cell-based, human
Conditions: for Percentage Cell Survival (% ± SD), H202 Given Last (30 min before H202 given/pre-treatment) / Percentage Cell Survival (% ± SD), H202 (added 30 min after): H2O2 0.25M about 30 min after treatment; for Percentage Cell Survival (% ± SD), H202 Given 1st (30 min after H202 Given, mimics acute injury) / Percentage Cell Survival (% ± SD), H202 (added 30 min before): H2O2 0.25M about 30 min before treatment; for Percentage Cell Survival (% ± SD), Control: control (PBS) instead of H2O2; for Percentage Cell Survival (% ± SD), H202 given (30 min after treatment with Vitamin D) / Percentage Cell Survival (% ± SD), H202 Given (30 min before treatment with Vitamin D) / Percentage Cell Survival (% ± SD), Control (PBS): Table 3; for Percentage Cell Survival (% ± SD), H202 given (30 min after treatment with Vitamin D): H2O2 0.25M 30 min after treatment; for Percentage Cell Survival (% ± SD), H202 Given (30 min before treatment with Vitamin D): H2O2 0.25M 30 min before treatment; for Percentage Cell Survival (% ± SD), Control (PBS): no H2O2
Method: Glial cells were purchased from ATCC (DBTRG-05MG; CRL-2020) and were derived from the brain of a […] with glioblastoma. […] Glial cells were subcultured at a ratio of about 1:4 every 2 to 3 days. Cell death was measured by the CytoTox 96 Non-Radioactive Cytotoxicity Assay according to the manufacturer's instructions (Promega, Madison, Wis.). Culture medium (500 μl) was recovered from and incubated for about 30 min in the dark with a buffer containing NAD+, lactate, and tetrazolium. Lactate Dehydrogenase (LDH) converts lactate to pyruvate, generating NADH which reduces tetrazolium (yellow) to formazan (red), which is detected by […] (490 nm). LDH release, a marker for cell death, was expressed as a percentage of the LDH in the medium over the total LDH. Data was analyzed using a two-tailed t-test after applying ANOVA to the data. Differences were considered significant when p<0.01. Glia cells (10^6 cells) were plated in triplicates in 6-well plates. […] Percentage cell survival was calculated about 24 hours later using LDH assay. […] Glia cells (10^6 cells) were plated in triplicates in 6-well plates. […] Percentage cell survival was calculated about 24 hours later using LDH assay. […] Glia cells (10^6 cells) were plated in triplicates in 6-well plates. […] Percentage cell survival was calculated about 24 hours later using LDH assay.

[1] = Table 1, survival about 24 h later, 3 experiments
[2] = Table 2, Vitamin D3 (1/5), Hsp72 (1/5), Glutathione 200 mg/ml, 24 h, 4 experiments

Compound | Percentage Cell Survival (% ± SD), H202 Given Last (30 min before H202 given/pre-treatment) [1] [%] | Percentage Cell Survival (% ± SD), H202 Given 1st (30 min after H202 Given, mimics acute injury) [1] [%] | Percentage Cell Survival (% ± SD), Control [1] [%] | Percentage Cell Survival (% ± SD), H202 (added 30 min after) [2] [%] | Percentage Cell Survival (% ± SD), H202 (added 30 min before) [2] [%] | Percentage Cell Survival (% ± SD), Control [2] [%] | Percentage Cell Survival (% ± SD), H202 given (30 min after treatment with Vitamin D) (Vitamin D3 5 ng/m1, 24 h) [%] | Percentage Cell Survival (% ± SD), H202 Given (30 min before treatment with Vitamin D) (Vitamin D3 5 ng/m1, 24 h) [%] | Percentage Cell Survival (% ± SD), Control (PBS) (Vitamin D3 5 ng/m1, 24 h) [%] | Percentage Cell Survival (% ± SD), H202 given (30 min after treatment with Vitamin D) (Vitamin D3 25 ng/m1, 24 h) [%] | Percentage Cell Survival (% ± SD), H202 Given (30 min before treatment with Vitamin D) (Vitamin D3 25 ng/m1, 24 h) [%] | Percentage Cell Survival (% ± SD), Control (PBS) (Vitamin D3 25 ng/m1, 24 h) [%] | Percentage Cell Survival (% ± SD), H202 given (30 min after treatment with Vitamin D) (Vitamin D3 50 ng/m1, 24 h) [%] | Percentage Cell Survival (% ± SD), H202 Given (30 min before treatment with Vitamin D) (Vitamin D3 50 ng/m1, 24 h) [%] | Percentage Cell Survival (% ± SD), Control (PBS) (Vitamin D3 50 ng/m1, 24 h) [%] | Percentage Cell Survival (% ± SD), H202 Given (30 min before treatment with Vitamin D) (Vitamin D3 75 ng/m1, 24 h) [%] | Percentage Cell Survival (% ± SD), Control (PBS) (Vitamin D3 75 ng/m1, 24 h) [%] | Percentage Cell Survival (% ± SD), H202 given (30 min after treatment with Vitamin D) (Vitamin D3 100 ng/m1, 24 h) [%] | Percentage Cell Survival (% ± SD), H202 Given (30 min before treatment with Vitamin D) (Vitamin D3 100 ng/m1, 24 h) [%] | Percentage Cell Survival (% ± SD), Control (PBS) (Vitamin D3 100 ng/m1, 24 h) [%]
C=C1CC[C@H](O)C/C1=C/C=C1\CCC[C@]2(C)[C@@H]([C@H](C)CCCC(C)C)CC[C@@H]12 [Vitamin D3, Cholecalciferol] | 28.56 ± 8.9 | 15.27 ± 7.4 | 94.64 ± 4.6 | 12.68 ± 3.5 | 10.36 ± 2.3 | 97.28 ± 4.3 | 9.75 ± 3.6 | 6.22 ± 2.8 | 96.89 ± 4.5 | 13.09 ± 2.9 | 10.18 ± 2.2 | 98.56 ± 7.9 | 28.56 ± 3.9 | 15.27 ± 4.4 | 91.18 ± 6.8 | 22.94 ± 3.8 | 95.82 ± 6.2 | 60.11 ± 7.2 | 28.99 ± 6.9 | 97.41 ± 8.4
Hsp72: Endotoxin-free recombinant Hsp72 produced using the baculovirus expression vector system and expressed in insect cells | 48.54 ± 6.3 | 31.85 ± 9.2 | 96.88 ± 3.8 | 32.68 ± 7.5 | 21.57 ± 5.4 | 95.48 ± 5.1 | – | – | – | – | – | – | – | – | – | – | – | – | – | –
